Results from US12612410B2 (CHILDREN'S HOSPITAL MEDICAL CENTER, priority 2020, dated 2026).
pIC50: −log10 of the molar value.

Key:
[1] = system: NF-κB; test: NF-kB SEAP reporter assay in THP-1-Blue NF-κB cells, Pam3CSK4 stimulation; type: cell-based; settings: Pam3CSK4 1 ng/mL, read-out: NF-κB Pam3SCK4 IC50
Experimental: (§1) THP-1-Blue NF-xB cells (InvivoGen) carrying a stable integrated NF-κB-inducible secreted embryonic alkaline phosphatase (SEAP) reporter construct were plated at a concentration of 1×10^5 cells per well. The cells were stimulated with Pam3CSK4 (1 ng/mL) or hIL1B (1 ng/mL). After 10-20 minutes, the cells were then treated with vehicle (DMSO) or serial dilutions of the test compounds (10 doses tested for each test compound, with a 1:10 dilution series starting at 1 μM or 3 μM) with a final volume of 200 μL for 24 hours at 37° C. After 24 hours, the cells were centrifuged and 20 μL supernatant was incubated with 180 μL QUANTI-Blue reagent at 37° C. for 30-60 minutes. The levels of NF-κB-induced was measured in a microplate reader at 620 nm.

[2] = system: NF-κB; test: NF-kB SEAP reporter assay in THP-1-Blue NF-κB cells, hIL1B stimulation; type: cell-based; settings: hIL1B 1 ng/mL, read-out: NF-κB IL1B IC50
Experimental: as §1

[3] = target: T1, IRAK4 (Homo sapiens, UniProt Q9NWZ3); test: RBC HotSpot Kinase Assay, IRAK4; type: biochemical; parameters: purchased Reaction Biology (RBC), HotSpot kinase assay; settings: isolated kinase, 33P-ATP
T1 sequence (Q9NWZ3 1-460): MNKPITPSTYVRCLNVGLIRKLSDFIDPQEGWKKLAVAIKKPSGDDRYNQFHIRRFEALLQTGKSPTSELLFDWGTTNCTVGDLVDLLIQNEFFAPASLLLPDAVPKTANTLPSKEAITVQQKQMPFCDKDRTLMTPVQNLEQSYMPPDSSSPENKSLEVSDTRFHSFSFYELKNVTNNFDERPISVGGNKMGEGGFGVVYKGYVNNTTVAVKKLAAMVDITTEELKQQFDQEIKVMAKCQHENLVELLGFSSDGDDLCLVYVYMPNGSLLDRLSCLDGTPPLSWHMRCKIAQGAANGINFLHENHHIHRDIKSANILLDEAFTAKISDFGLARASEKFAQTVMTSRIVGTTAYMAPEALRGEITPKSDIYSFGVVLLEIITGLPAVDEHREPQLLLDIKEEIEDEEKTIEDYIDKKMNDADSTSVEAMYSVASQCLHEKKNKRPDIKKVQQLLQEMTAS
In short: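 Functional radiometric activity assay: kinase + substrate + cofactors in Hepes pH 7.5/MgCl2/EGTA/Brij35/BSA/Na3VO4/DTT, 1% DMSO; cmpd preincubation 20 min RT; 33P-ATP start, 2 h RT; P81 filter-binding readout.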

| SMILES | pIC50 ([1]; 24 hours) | pIC50 ([2]; 24 hours) | pIC50 [3] | pIC50 ([1]; 24 h) | pIC50 ([2]; 24 h) |
| --- | --- | --- | --- | --- | --- |
| O=C1CCCN1c1cn2c(-c3cccc(N[C@H]4CNCC[C@@H]4F)n3)cnc2cn1 [Compound 119, 1-(3-(6-(((3S,4S)-4-fluoropiperidin-3-yl)amino)pyridin-2-yl)imidazo[1,2-a]pyrazin-6-yl)pyrrolidin-2-one] | 7.25 | 5.89 | 8.00 |  |  |
| O=C1CCCN1c1cn2c(-c3cccc(N[C@H]4CNC[C@@H]4F)n3)cnc2cn1 [Compound 121, 1-(3-(6-(((3S,4S)-4-fluoropyrrolidin-3-yl)amino)pyridin-2-yl)imidazo[1,2-a]pyrazin-6-yl)pyrrolidin-2-one] |  |  | 8.30 | 7.27 | 7.12 |
| CC(C)(C)c1cn2c(-c3cccc(N[C@@H]4CCCNC4)n3)cnc2cn1 [Compound 129, (R)-6-(6-(tert-butyl)imidazo[1,2-a]pyrazin-3-yl)-N-(piperidin-3-yl)pyridin-2-amine] | 7.96 | 7.15 | 9.00 |  |  |
